Data as given in patent US10934298B2, “Substituted pyrazolo[1,5-a]pyrimidines for the treatment of medical disorders” (BIAL—BioTech Investments, Inc., priority 2016, dated 2021).

Target: T1, glucocerebrosidase (Gcase) (Homo sapiens, UniProt P04062)
T1 construct: micellar solution containing 10 nM GCase and 100 nM saposin C
T1 sequence (P04062 40-536): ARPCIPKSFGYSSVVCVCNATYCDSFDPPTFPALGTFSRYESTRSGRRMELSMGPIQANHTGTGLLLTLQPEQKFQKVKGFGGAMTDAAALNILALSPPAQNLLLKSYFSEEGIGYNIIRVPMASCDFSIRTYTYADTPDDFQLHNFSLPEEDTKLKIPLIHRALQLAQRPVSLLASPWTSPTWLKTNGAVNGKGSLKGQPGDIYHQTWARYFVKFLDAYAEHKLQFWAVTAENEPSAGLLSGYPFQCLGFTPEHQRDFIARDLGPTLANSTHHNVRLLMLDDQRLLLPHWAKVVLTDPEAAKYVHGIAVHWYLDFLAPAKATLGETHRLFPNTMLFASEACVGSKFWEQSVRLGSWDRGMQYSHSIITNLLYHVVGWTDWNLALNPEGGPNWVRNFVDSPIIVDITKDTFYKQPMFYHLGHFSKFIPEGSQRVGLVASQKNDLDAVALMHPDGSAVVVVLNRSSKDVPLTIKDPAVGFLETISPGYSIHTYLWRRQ
Experiment: Glucocerebrosidase (Gcase) activation assay with 4-methylumbelliferyl-beta-D-glucopyranoside substrate, saposin C and phosphatidylserine/triton micelles, fluorescence readout
Format: biochemical
In short: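 Readout is endpoint fluorescence (ex 365, em 440 nm) after glycine pH 12.5 stop of a 15-min room-temperature reaction. Enzyme mix: GCase 10 nM plus saposin C 100 nM in 0.37 mol % PS/0.32 mM triton micelles, pH 4.7, compound pre-incubated 30 min; substrate solution 2 mM before 1:1 mixing. Tested at 1.0/0.1 μM, then 3-fold, 8-point series up to 5 μM.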

Percent Gcase Activation, 0.1 μM Test Compound (0.1 μM test compound) | Percent Gcase Activation, 1 μM Test Compound (1 μM test compound) | Percent Gcase Activation, 0.1 μM Test Compound (test compound at 0.1 μM) | Percent Gcase Activation, 1 μM Test Compound (test compound at 1.0 μM) | SMILES | also measured
*** (greater than 20% Gcase activation) | +++ (Gcase activation greater than 60%) | – | – | Cc1cc(-c2cncc(C(F)(F)F)c2)nc2c(C(=O)NC(C)C(F)(F)F)cnn12 (centres unmarked) [III-285] | –
– | – | *** (greater than 20% Gcase activation) | +++ (Gcase activation greater than 60%) | Cc1cc(-c2cccnc2F)nc2c(C(=O)N[C@@H](C3CC3)C(F)(F)F)cnn12 [III-115] | –
*** (greater than 20% Gcase activation) | +++ (Gcase activation greater than 60%) | – | – | Cc1cocc1-c1cc(C)n2ncc(C(=O)N[C@H](C)C(F)(F)F)c2n1 [III-336] | –
*** (greater than 20% Gcase activation) | +++ (Gcase activation greater than 60%) | – | – | Cc1cc(-c2noc(C(C)C)n2)nc2c(C(=O)N[C@@H](C)C(F)(F)F)cnn12 [III-401] | –
– | – | – | – | Cc1cc(-c2ccncc2)n2ncc(C(=O)N[C@@H](C)C3CC3)c2n1 [III-29] | Percent Gcase Activation, 0.1 μM Test Compound (0.1 μM test compound, Table 3A): * (less than 10% Gcase activation); Percent Gcase Activation, 1 μM Test Compound (1 μM test compound, Table 3A): + (less than 30% Gcase activation)
*** (greater than 20% Gcase activation) | +++ (Gcase activation greater than 60%) | – | – | Cc1cc(-c2ccc3c(c2)OCO3)nc2c(C(=O)NC(C)C(F)(F)F)cnn12 (centres unmarked) [III-289] | –
– | – | – | – | Cc1cc(-c2ccc(F)cc2)nc2c(C(=O)N[C@@H](C)C3CC3)c(Cl)nn12 [III-32] | Percent Gcase Activation, 0.1 μM Test Compound (0.1 μM test compound, Table 3A): ** (Gcase activation in the range of 10% up to 20%); Percent Gcase Activation, 1 μM Test Compound (1 μM test compound, Table 3A): +++ (Gcase activation greater than 60%)
*** (greater than 20% Gcase activation) | +++ (Gcase activation greater than 60%) | – | – | Cc1cc(-c2cncc(C(F)(F)F)c2)nc2c(C(=O)N[C@H](C)C(F)(F)F)cnn12 [III-286] | –
– | – | *** (greater than 20% Gcase activation) | +++ (Gcase activation greater than 60%) | Cc1cc(-c2cc(C)n3ncc(C(=O)NC(C4CC4)C(F)(F)F)c3n2)sn1 (centres unmarked) [III-214] | –
* (less than 10% Gcase activation) | + (less than 30% Gcase activation) | – | – | Cc1cc(-c2cccc3ncn(C)c23)nc2c(C(=O)NC(C3CC3)C(F)(F)F)cnn12 (centres unmarked) [III-309] | –
*** (greater than 20% Gcase activation) | +++ (Gcase activation greater than 60%) | – | – | Cc1cc(-c2cc(C)n3ncc(C(=O)N[C@H](C)C(F)(F)F)c3n2)co1 [III-338] | –
*** (greater than 20% Gcase activation) | +++ (Gcase activation greater than 60%) | – | – | Cc1cc(-c2cc(F)c3ocnc3c2)nc2c(C(=O)N[C@@H](C)C(F)(F)F)cnn12 [III-297] | –
– | – | – | – | CCC(NC(=O)c1cnn2c(C)cc(-c3cccnc3)nc12)C(F)(F)F (centres unmarked) [III-42] | Percent Gcase Activation, 0.1 μM Test Compound (0.1 μM test compound, Table 3A): * (less than 10% Gcase activation); Percent Gcase Activation, 1 μM Test Compound (1 μM test compound, Table 3A): +++ (Gcase activation greater than 60%)
– | – | – | – | Cc1cc(N2CCC(F)(F)C2)nc2c(C(=O)NC(C3CC3)C(F)(F)F)cnn12 (centres unmarked) [III-67] | Percent Gcase Activation, 0.1 μM Test Compound (0.1 μM test compound, Table 3A): *** (greater than 20% Gcase activation); Percent Gcase Activation, 1 μM Test Compound (1 μM test compound, Table 3A): +++ (Gcase activation greater than 60%)
– | – | – | – | Cc1cc(-c2cccc(C#N)c2)nc2c(C(=O)NC(C3CC3)C(F)(F)F)cnn12 (centres unmarked) [III-72] | Percent Gcase Activation, 0.1 μM Test Compound (0.1 μM test compound, Table 3A): *** (greater than 20% Gcase activation); Percent Gcase Activation, 1 μM Test Compound (1 μM test compound, Table 3A): +++ (Gcase activation greater than 60%)
* (less than 10% Gcase activation) | +++ (Gcase activation greater than 60%) | – | – | Cc1cc(N2CCN(C(C)C)C2=O)nc2c(C(=O)N[C@@H](C3CC3)C(F)(F)F)cnn12 [III-326] | –
– | – | *** (greater than 20% Gcase activation) | +++ (Gcase activation greater than 60%) | Cc1cc(-c2ccc(F)c(C#N)c2)nc2c(C(=O)NC(C3CC3)C(F)(F)F)cnn12 (centres unmarked) [III-158] | –
– | – | – | – | CNc1cc(C)n2ncc(C(=O)N[C@@H](C)C3CC3)c2n1 [III-6] | Percent Gcase Activation, 0.1 μM Test Compound (0.1 μM test compound, Table 3A): * (less than 10% Gcase activation); Percent Gcase Activation, 1 μM Test Compound (1 μM test compound, Table 3A): ++ (Gcase activation in the range of 30% up to 60%)
– | – | – | – | Cc1cc(C)n2ncc(C(=O)Nc3ccc(C#CCN(C)C)cc3)c2n1 [IV-2] | Percent Gease Activation, 0.1 μM Test Compound (0.1 μM test compound, Table 4): * (less than 10% Gcase activation); Percent Gease Activation, 1 μM Test Compound (1 μM test compound, Table 4): + (less than 30% Gcase activation)
– | – | – | – | Cc1cc(-c2ccc(F)nc2)nc2c(C(=O)NC(C3CC3)C(F)(F)F)cnn12 (centres unmarked) [III-84] | Percent Gcase Activation, 0.1 μM Test Compound (0.1 μM test compound, Table 3A): *** (greater than 20% Gcase activation); Percent Gcase Activation, 1 μM Test Compound (1 μM test compound, Table 3A): +++ (Gcase activation greater than 60%)
*** (greater than 20% Gcase activation) | +++ (Gcase activation greater than 60%) | – | – | Cc1sncc1-c1cc(C)n2ncc(C(=O)N[C@@H](C3CC3)C(F)(F)F)c2n1 [III-388] | –
*** (greater than 20% Gcase activation) | +++ (Gcase activation greater than 60%) | – | – | Cc1ncc(-c2cc(C)n3ncc(C(=O)N[C@@H](C4CC4)C(F)(F)F)c3n2)cc1F [III-381] | –
– | – | *** (greater than 20% Gcase activation) | +++ (Gcase activation greater than 60%) | Cc1cc(-c2ccccc2C#N)nc2c(C(=O)NC(C3CC3)C(F)(F)F)cnn12 (centres unmarked) [III-211] | –
– | – | *** (greater than 20% Gcase activation) | +++ (Gcase activation greater than 60%) | Cc1cc(-c2ccns2)nc2c(C(=O)N[C@H](C3CC3)C(F)(F)F)cnn12 [III-100] | –
– | – | – | – | Cc1cc(NC2CC2)nc2c(C(=O)NC(C3CC3)C3CC3)cnn12 [III-78] | Percent Gcase Activation, 0.1 μM Test Compound (0.1 μM test compound, Table 3A): *** (greater than 20% Gcase activation); Percent Gcase Activation, 1 μM Test Compound (1 μM test compound, Table 3A): +++ (Gcase activation greater than 60%)
– | – | – | – | Cc1cc(Cl)nc2c(C(=O)NC(C3CC3)C(F)(F)F)cnn12 (centres unmarked) [III-45] | Percent Gcase Activation, 0.1 μM Test Compound (0.1 μM test compound, Table 3A): *** (greater than 20% Gcase activation); Percent Gcase Activation, 1 μM Test Compound (1 μM test compound, Table 3A): +++ (Gcase activation greater than 60%)
– | – | *** (greater than 20% Gcase activation) | +++ (Gcase activation greater than 60%) | Cc1ccc(-c2cc(C)n3ncc(C(=O)N[C@@H](C4CC4)C(F)(F)F)c3n2)cn1 [III-280] | –
– | – | *** (greater than 20% Gcase activation) | +++ (Gcase activation greater than 60%) | Cc1cc(N2CCCC(F)(F)C2)nc2c(C(=O)N[C@@H](C3CC3)C(F)(F)F)cnn12 [III-95] | –
– | – | *** (greater than 20% Gcase activation) | +++ (Gcase activation greater than 60%) | Cc1cc(-c2cccc(-c3ncncn3)c2)nc2c(C(=O)NC(C3CC3)C(F)(F)F)cnn12 (centres unmarked) [III-177] | –

SMILES | Percent Gcase Activation, 0.1 μM Test Compound (0.1 μM test compound) | Percent Gcase Activation, 1 μM Test Compound (1 μM test compound) | Percent Gcase Activation, 0.1 μM Test Compound (test compound at 0.1 μM) | Percent Gcase Activation, 1 μM Test Compound (test compound at 1.0 μM) | also measured
Cc1cc(-c2cccnc2)nc2c(C(=O)N[C@@H](C3CC3)C(F)(F)F)cnn12 [III-89] | – | – | ** (Gcase activation in the range of 10% up to 20%) | +++ (Gcase activation greater than 60%) | –
Cc1cc(NC2CC2)nc2c(C(=O)NC(C)C(F)(F)F)cnn12 (centres unmarked) [III-165] | – | – | ** (Gcase activation in the range of 10% up to 20%) | +++ (Gcase activation greater than 60%) | –
COc1cncc(-c2cc(C)n3ncc(C(=O)NC(C)C(F)(F)F)c3n2)c1 (centres unmarked) [III-270] | – | – | ** (Gcase activation in the range of 10% up to 20%) | +++ (Gcase activation greater than 60%) | –
COc1ccncc1-c1cc(C)n2ncc(C(=O)NC(C3CC3)C(F)(F)F)c2n1 (centres unmarked) [III-263] | – | – | * (less than 10% Gcase activation) | ++ (Gcase activation in the range of 30% up to 60%) | –
Cc1cc(-n2ccc(Cl)n2)nc2c(C(=O)NC(C)C(F)(F)F)cnn12 (centres unmarked) [III-170] | – | – | ** (Gcase activation in the range of 10% up to 20%) | ++ (Gcase activation in the range of 30% up to 60%) | –
Cc1cc(-c2cccc3c2ncn3C)nc2c(C(=O)NC(C3CC3)C(F)(F)F)cnn12 (centres unmarked) [III-310] | ** (Gcase activation in the range of 10% up to 20%) | +++ (Gcase activation greater than 60%) | – | – | –
Cc1cc(-c2ccc(F)cc2)nc2c(C(=O)N[C@H](C)C(F)(F)F)cnn12 [III-359] | ** (Gcase activation in the range of 10% up to 20%) | +++ (Gcase activation greater than 60%) | – | – | –
CO[C@H]1CC[C@H]([C@@H](C)NC(=O)c2cnn3c(C)cc(C)nc23)CC1 [III-403] | * (less than 10% Gcase activation) | ++ (Gcase activation in the range of 30% up to 60%) | – | – | –
